{
  "source": "patent EP0515927A2",
  "about": "“Pradimicin antibiotics” (priority 1991, dated 1992)",
  "key": {"[1]": {"system": "herpes simplex virus type I (HSV-1)", "conditions": "72 h"}, "Vero cells": {"system": "Vero cells", "conditions": "HSV-Vero cell, (TD50: 50% cytotoxicity without virus)"}, "C. albicans A9540": {"system": "C. albicans A9540", "assay": "In vivo efficacy against C. albicans A9540 systemic infection in mice", "parameters": "species or system male ICR mice", "conditions": "single i.v. injection immediately after i.v. challenge; survivors on 20th day", "protocol": "The in vivo efficacy of pradimicins was evaluated against C. albicans A9540 systemic infection in male ICR mice (20-24 g body weight). The pathogen was cultured for 18 hours at 28°C in YGP medium (yeast extract 0.2%, glucose 1.5%, peptone 0.5%, K2HP04 0.05% and MgS04 0.05%) and resuspended in saline. Mice were challenged intravenously with 10 times lethal dose of the pathogen. Immediately after the fungal challenge, groups of 5 mice received a single intravenous injection of pradimicin S or FS or N-methyl pradimicin S at various dose levels. Amphotericin B and Fluconazol were used as positive controls. The median protective dose (PDso) was determined from the number of surviving mice recorded on the 20th day after the fungal infection."}, "various fungal organisms": {"system": "various fungal organisms", "assay": "In vitro antifungal activity, agar dilution method, Yeast Morphology agar with 1/15 M phosphate buffer (pH 7.0)", "type": "cell-based", "conditions": "summary in words (Table 7 is an image)", "protocol": "The in vitro antifungal activity of pradimicins was determined by a conventional agar dilution method using Yeast Morphology agar containing 1/15 M phosphate buffer (pH 7.0)."}, "influenza virus A": {"system": "influenza virus A", "assay": "In vitro antiviral activity, influenza virus A-MDCK cell system, dye-uptake assay (inhibition of viral cytopathic effect)", "type": "cell-based", "conditions": "50% inhibition of cytopathic effect, 72 hours"}, "[2]": {"assay": "Acute toxicity in mice after single i.v. administration", "type": "in vivo", "protocol": "The acute toxicity of pradimicins S and FS and N-methyl pradimicin S was determined in mice after single administration (i.v.)."}, "[3]": {"system": "Madin Darby canine kidney (MDCK) cell", "conditions": "Influenza virus-MDCK cell, (TD50: 50% cytotoxicity without virus)"}, "[4]": {"conditions": "mouse, in vivo, iv, read-out: LD50"}},
  "note": "Where two headings read alike, the source gives them in different places.",
  "data": [
    {"compound": "Nc1nc2c(ncn2COCCO)c(=O)[nH]1", "note": "[Acyclovir, reference compound]", "values": [
      {"measurement": "ID50", "setting": "[1]", "result": 0.09, "unit": "µg/mL"},
      {"measurement": "ID50", "setting": "Vero cells", "result": ">100", "unit": "µg/mL"}
    ]},
    {"compound": "C[C@@H]1[C@H](O)[C@@H](C)/C=C/C=C/C=C/C=C/C=C/C=C/C=C/[C@H](O[C@@H]2O[C@H](C)[C@@H](O)[C@H](N)[C@@H]2O)C[C@@H]2O[C@](O)(C[C@@H](O)C[C@@H](O)[C@H](O)CC[C@@H](O)C[C@@H](O)CC(=O)O[C@H]1C)C[C@H](O)[C@H]2C(=O)O", "note": "[Amphotericin B, reference compound]", "values": [
      {"measurement": "PD50 mg/kg (i.v.)", "setting": "C. albicans A9540", "result": 0.31, "unit": "mg/kg"}
    ]},
    {"compound": "OC(Cn1cncn1)(Cn1cncn1)c1ccc(F)cc1F", "note": "[Fluconazol, reference compound]", "values": [
      {"measurement": "PD50 mg/kg (i.v.)", "setting": "C. albicans A9540", "result": ">50", "unit": "mg/kg"}
    ]},
    {"compound": "CN[C@@H]1[C@H](O[C@@H]2O[C@H](CO)[C@@H](O)[C@H](OS(=O)(=O)O)[C@H]2O)[C@@H](O)[C@H](O[C@H]2c3cc(C)c(C(=O)N[C@H](CO)C(=O)O)c(O)c3-c3c(cc4c(c3O)C(=O)c3cc(OC)cc(O)c3C4=O)[C@@H]2O)O[C@@H]1C", "note": "[Pradimicin FS, pradimicin FS]", "values": [
      {"measurement": "in vitro antifungal activity", "setting": "various fungal organisms", "result": "activity against various fungal organisms"},
      {"measurement": "PD50 mg/kg (i.v.)", "setting": "C. albicans A9540", "result": 18, "unit": "mg/kg"},
      {"measurement": "ID50", "setting": "influenza virus A", "result": 82, "unit": "µg/mL"},
      {"measurement": "LD50", "setting": "[2]; [4]", "result": 210, "unit": "mg/kg"},
      {"measurement": "ID50", "setting": "[1]", "result": ">100", "unit": "µg/mL"},
      {"measurement": "ID50", "setting": "Vero cells", "result": ">100", "unit": "µg/mL"},
      {"measurement": "ID50", "setting": "[3]", "result": ">100", "unit": "µg/mL"}
    ]},
    {"compound": "CN[C@@H]1[C@H](O[C@@H]2O[C@H](CO)[C@@H](O)[C@H](OS(=O)(=O)O)[C@H]2O)[C@@H](O)[C@H](O[C@H]2c3cc(C)c(C(=O)N[C@H](C)C(=O)O)c(O)c3-c3c(cc4c(c3O)C(=O)c3cc(OC)cc(O)c3C4=O)[C@@H]2O)O[C@@H]1C", "note": "[Pradimicin S, pradimicin S]", "values": [
      {"measurement": "in vitro antifungal activity", "setting": "various fungal organisms", "result": "activity against various fungal organisms"},
      {"measurement": "PD50 mg/kg (i.v.)", "setting": "C. albicans A9540", "result": 35, "unit": "mg/kg"},
      {"measurement": "ID50", "setting": "influenza virus A", "result": 22, "unit": "µg/mL"},
      {"measurement": "LD50", "setting": "[2]; [4]", "result": 244, "unit": "mg/kg"},
      {"measurement": "ID50", "setting": "[1]", "result": ">100", "unit": "µg/mL"},
      {"measurement": "ID50", "setting": "Vero cells", "result": ">100", "unit": "µg/mL"},
      {"measurement": "ID50", "setting": "[3]", "result": ">100", "unit": "µg/mL"}
    ]},
    {"compound": "NC(=O)c1ncn([C@@H]2O[C@H](CO)[C@@H](O)[C@H]2O)n1", "note": "[Ribavirin, reference compound]", "values": [
      {"measurement": "ID50", "setting": "influenza virus A", "result": 9.5, "unit": "µg/mL"}
    ]},
    {"compound": "N-methyl pradimicin S [BMY-29273]", "values": [
      {"measurement": "in vitro antifungal activity", "setting": "various fungal organisms", "result": "activity against various fungal organisms"},
      {"measurement": "PD50 mg/kg (i.v.)", "setting": "C. albicans A9540", "result": 47, "unit": "mg/kg"},
      {"measurement": "LD50", "setting": "[2]", "result": "≥ 424", "unit": "mg/kg"}
    ]}
  ]
}
